Experimental data as given in patent US20120220581A1, “IMIDAZO[1,2-b]PYRIDAZINE DERIVATIVES AND THEIR USE AS PDE10 INHIBITORS” (Janssen-Cilag, S.A., priority 2009, published 2012).
Like-named read-outs stand apart in the source and are kept apart here.

Legend:
[1] = biological target: T1, Rat recombinant PDE10A (rPDE10A2) (Rattus norvegicus, UniProt Q9QYJ6); test: In vitro assay PDE10A (SPA, 3H-cAMP); format: biochemical
T1 construct: inferred from the Ni metal chelate purification; made in house; host or cells: Sf9 insect cells (baculovirus)
T1 sequence (Q9QYJ6 1-794): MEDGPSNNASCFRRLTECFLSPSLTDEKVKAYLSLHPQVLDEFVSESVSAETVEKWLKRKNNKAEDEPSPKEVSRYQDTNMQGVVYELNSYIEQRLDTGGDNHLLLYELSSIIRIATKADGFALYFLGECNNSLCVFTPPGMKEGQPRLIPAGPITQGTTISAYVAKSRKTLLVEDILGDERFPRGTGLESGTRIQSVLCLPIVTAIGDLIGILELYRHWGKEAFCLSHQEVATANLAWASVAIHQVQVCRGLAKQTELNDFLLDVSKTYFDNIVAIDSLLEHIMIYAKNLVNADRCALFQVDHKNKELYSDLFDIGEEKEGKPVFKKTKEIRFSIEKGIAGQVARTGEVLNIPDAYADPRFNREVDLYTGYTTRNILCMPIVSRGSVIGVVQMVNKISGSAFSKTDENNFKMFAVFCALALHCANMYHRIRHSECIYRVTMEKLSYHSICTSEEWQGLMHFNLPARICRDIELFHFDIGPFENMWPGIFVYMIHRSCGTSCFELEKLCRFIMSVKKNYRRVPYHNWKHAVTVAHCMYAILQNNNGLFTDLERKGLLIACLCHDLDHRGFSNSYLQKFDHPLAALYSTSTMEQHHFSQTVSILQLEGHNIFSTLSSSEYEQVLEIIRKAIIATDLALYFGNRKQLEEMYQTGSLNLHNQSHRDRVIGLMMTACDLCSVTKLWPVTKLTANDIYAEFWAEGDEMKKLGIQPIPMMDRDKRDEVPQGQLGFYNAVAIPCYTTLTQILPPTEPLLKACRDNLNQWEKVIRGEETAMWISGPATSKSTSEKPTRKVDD
Procedure, shortened: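 Rat PDE10A2 expressed in Sf9 cells and Ni-purified; incubated with 60 nM cAMP plus 0.008 μCi 3H-cAMP in 50 mM Tris pH 7.8, 8.3 mM MgCl2, 1.7 mM EGTA for 60 min at room temperature. Product quantified by scintillation proximity counting; final DMSO 1%.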

PDE4D3 = PDE4D3 (Homo sapiens, UniProt Q08499); test: In vitro PDE selectivity assay (SPA), PDE4D3; format: biochemical; conditions: hPDE4D3; read-out: PDE 4D3 (expressed as pIC50) (converted)
Experimental: (§1) Rat recombinant PDE10A (rPDE10A2) was expressed in Sf9 cells using a recombinant rPDE10A baculovirus construct. Cells were harvested after 48 h of infection and the rPDE10A protein was purified by metal chelate chromatography on Ni-sepharose 6FF. Tested compounds were dissolved and diluted in 100% DMSO to a concentration 100 fold of the final concentration in the assay. Compound dilutions (0.4 μl) were added in 384 well plates to 20 μl of incubation buffer (50 mM Tris pH 7.8, 8.3 mM MgCl2, 1.7 mM EGTA). 10 μl of rPDE10A enzyme in incubation buffer was added and the reaction was started by addition of 10 μl substrate to a final concentration of 60 nM cAMP and 0.008 μCi ^3H-cAMP. The reaction was incubated for 60 minutes at room temperature. After incubation, the reaction was stopped with 20 μl of stop solution consisting of 17.8 mg/ml PDE SPA (scintillation proximity assay) beads. After sedimentation of the beads during 30 minutes the radioactivity was measured in a Perkin Elmer Topcount scintillation counter and results were expressed as cpm. For blanc values the enzyme was omitted from the reaction and replaced by incubation buffer. Control values were obtained by addition of a final concentration of 1% DMSO instead of compound. The same assay principle is applied for the measurement of the affinity of the compound for other members of the PDE family with appropriate modifications in incubation buffer, substrate concentration, incubation time and stop solution. An overview of the different protocols is presented in table A. A best fit curve is fitted by a minimum sum of squares method to the plot of % of control value substracted with blanc value versus compound concentration and the half maximal inhibitory concentration (IC50) value is derived from this curve.
(§2) The compounds of the invention are generally selective for PDE10 compared to other PDEs and there are a few that also have affinity for PDE1B1, 4D3 and 5A3.

PDE5A3 = PDE5A3 (Homo sapiens, UniProt O76074); test: In vitro PDE selectivity assay (SPA), PDE5A3; format: biochemical; conditions: hPDE5A3; read-out: PDE 5A3 (expressed as pIC50) (converted)
Experimental: as §1, §2

[2] = biological target: other members of the PDE family (Homo sapiens, UniProt O00408); test: In vitro PDE selectivity assay (SPA), other members of the PDE family (protocols in Table A); format: biochemical; conditions: hPDE2A; read-out: PDE 2A (expressed as pIC50) (converted)
Procedure, shortened: (§3)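 Inhibition of each PDE isoform was measured by scintillation proximity assay with ³H-cyclic nucleotide substrate, using incubation buffer, substrate concentration, incubation time and stop solution adapted per isoform. Compounds were tested in dose-response against 1% DMSO controls and enzyme-free blanks. IC50 came from a least-squares fit of blank-subtracted % of control versus concentration.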

[3] = biological target: other members of the PDE family (Homo sapiens, UniProt O76083); test: as above; format: biochemical; conditions: hPDE9A; read-out: PDE 9A (expressed as pIC50) (converted)
Procedure, shortened: as §3

[4] = biological target: other members of the PDE family (Homo sapiens, UniProt Q13946); test: as above; format: biochemical; conditions: hPDE7A1; read-out: PDE 7A (expressed as pIC50) (converted)
Procedure, shortened: as §3

[5] = biological target: other members of the PDE family (Homo sapiens, UniProt Q14432); test: as above; format: biochemical; conditions: hPDE3A; read-out: PDE 3A (expressed as pIC50) (converted)
Procedure, shortened: as §3

[6] = biological target: other members of the PDE family (Homo sapiens, UniProt Q9HCR9); test: as above; format: biochemical; conditions: hPDE11A4; read-out: PDE 11A4 (expressed as pIC50) (converted)
Procedure, shortened: as §3

[7] = test system: apomorphine-induced stereotypy in rats; test: Apomorphine-induced stereotypy in rats (APO); format: in vivo; conditions: Rattus norvegicus; dose at which 50% of the tested animals show the effect; ≧: active in 30% of the animals at the indicated dose; ≦: active in 60%
Experimental: Apomorphine (1.0 mg/kg, i.v.)-induced stereotypy (compulsive sniffing, licking, chewing) was scored every 5 min over the first hour after injection of apomorphine, following a 1 hour interval pre-treatment with the test compound. The score system was: (3) pronounced, (2) moderate, (1) slight, and (0) absent.

PDE10 = biological target: T2, PDE10 (Rattus norvegicus, UniProt Q9QYJ6); test: PDE10 occupancy ([3H]-MP-10, striatum); format: in vivo; conditions: for receptor occupancy at 10 mg/kg / ED50: rat, sc; for receptor occupancy at 10 mg/kg: single dose 10 mg/kg, subcutaneous, read-out: SD sc % occupancy at 10 mg/kg; for ED50: dose response, subcutaneous administration, read-out: PDE10 in vivo occupancy ED50 sc; for % occupancy at the highest dose tested: dose response sc, data between brackets
T2 construct: from tissue; host or cells: rat brain sections, striatum (in vivo dosing, ex vivo autoradiography)
T2 sequence (Q9QYJ6 1-794): T1 sequence (Q9QYJ6 1-794)
Procedure, shortened: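 Male Wistar rats (200 g) dosed s.c. or p.o.; occupancy measured 1 h post-dose. [^3H]-MP-10 (10 μCi/animal) given i.v. 30 min before sacrifice.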

[8] = Table 4 in vitro selectivity, read-out: PDE 10A2 (expressed as pIC50) (converted)
[9] = pIC50 corresponds to the −log IC50 expressed in mol/L, read-out: PDE10A2 pIC50 (converted)

Sequence of PDE4D3 (Q08499 1-673 isoform Q08499-2): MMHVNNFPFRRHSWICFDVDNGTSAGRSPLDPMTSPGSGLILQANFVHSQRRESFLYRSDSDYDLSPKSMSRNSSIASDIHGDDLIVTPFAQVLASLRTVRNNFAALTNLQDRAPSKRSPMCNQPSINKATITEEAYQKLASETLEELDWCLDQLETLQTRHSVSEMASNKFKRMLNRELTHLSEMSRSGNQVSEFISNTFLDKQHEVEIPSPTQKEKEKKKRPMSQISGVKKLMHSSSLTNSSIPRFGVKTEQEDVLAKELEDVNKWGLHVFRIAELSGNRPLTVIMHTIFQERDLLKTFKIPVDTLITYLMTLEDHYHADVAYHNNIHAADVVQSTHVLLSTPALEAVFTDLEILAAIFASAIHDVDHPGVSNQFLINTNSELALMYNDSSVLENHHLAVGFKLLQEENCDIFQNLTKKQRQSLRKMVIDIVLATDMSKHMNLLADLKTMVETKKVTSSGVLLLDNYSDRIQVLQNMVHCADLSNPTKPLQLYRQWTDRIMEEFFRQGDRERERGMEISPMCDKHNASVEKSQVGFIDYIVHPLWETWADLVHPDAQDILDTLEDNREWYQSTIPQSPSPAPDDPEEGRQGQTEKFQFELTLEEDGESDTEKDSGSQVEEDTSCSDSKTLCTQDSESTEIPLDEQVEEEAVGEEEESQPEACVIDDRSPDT
Sequence of other members of the PDE family (Homo sapiens, UniProt O00408) (O00408 whole entry, canonical isoform): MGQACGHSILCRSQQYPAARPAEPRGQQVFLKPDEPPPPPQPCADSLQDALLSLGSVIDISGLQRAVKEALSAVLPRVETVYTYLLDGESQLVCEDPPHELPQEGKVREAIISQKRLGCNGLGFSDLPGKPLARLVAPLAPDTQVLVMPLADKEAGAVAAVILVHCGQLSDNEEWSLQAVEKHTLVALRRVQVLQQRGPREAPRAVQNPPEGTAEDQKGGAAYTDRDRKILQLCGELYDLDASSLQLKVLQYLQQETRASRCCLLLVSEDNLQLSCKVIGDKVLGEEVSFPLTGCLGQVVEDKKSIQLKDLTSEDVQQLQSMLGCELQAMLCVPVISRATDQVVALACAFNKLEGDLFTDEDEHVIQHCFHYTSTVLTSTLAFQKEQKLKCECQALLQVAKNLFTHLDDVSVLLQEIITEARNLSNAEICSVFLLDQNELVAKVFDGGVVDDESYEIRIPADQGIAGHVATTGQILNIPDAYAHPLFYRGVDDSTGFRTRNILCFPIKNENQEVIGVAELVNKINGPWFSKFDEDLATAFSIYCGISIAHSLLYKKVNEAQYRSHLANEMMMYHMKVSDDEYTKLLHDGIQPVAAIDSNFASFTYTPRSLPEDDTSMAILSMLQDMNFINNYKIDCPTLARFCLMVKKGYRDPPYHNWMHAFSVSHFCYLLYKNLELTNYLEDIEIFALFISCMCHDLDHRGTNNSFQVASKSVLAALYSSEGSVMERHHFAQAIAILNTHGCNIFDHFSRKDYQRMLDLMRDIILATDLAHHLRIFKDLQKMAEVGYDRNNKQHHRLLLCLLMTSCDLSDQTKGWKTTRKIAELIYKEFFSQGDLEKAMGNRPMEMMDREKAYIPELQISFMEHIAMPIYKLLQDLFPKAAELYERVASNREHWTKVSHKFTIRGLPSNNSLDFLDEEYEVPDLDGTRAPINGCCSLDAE
Sequence of other members of the PDE family (Homo sapiens, UniProt Q13946) (Q13946 whole entry): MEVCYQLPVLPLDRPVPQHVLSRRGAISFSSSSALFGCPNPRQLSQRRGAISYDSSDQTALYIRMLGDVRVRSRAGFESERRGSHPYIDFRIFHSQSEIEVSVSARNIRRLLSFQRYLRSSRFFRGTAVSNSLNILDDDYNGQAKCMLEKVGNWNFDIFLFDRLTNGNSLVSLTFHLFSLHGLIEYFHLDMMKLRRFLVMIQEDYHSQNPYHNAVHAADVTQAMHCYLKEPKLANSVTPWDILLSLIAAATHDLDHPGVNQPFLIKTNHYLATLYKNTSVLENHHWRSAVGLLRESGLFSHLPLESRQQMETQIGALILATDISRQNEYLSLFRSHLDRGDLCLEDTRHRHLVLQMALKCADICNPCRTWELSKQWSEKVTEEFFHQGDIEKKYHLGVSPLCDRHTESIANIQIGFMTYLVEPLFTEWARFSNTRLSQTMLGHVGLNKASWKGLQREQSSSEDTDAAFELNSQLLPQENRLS
Sequence of other members of the PDE family (Homo sapiens, UniProt O76083) (O76083 whole entry): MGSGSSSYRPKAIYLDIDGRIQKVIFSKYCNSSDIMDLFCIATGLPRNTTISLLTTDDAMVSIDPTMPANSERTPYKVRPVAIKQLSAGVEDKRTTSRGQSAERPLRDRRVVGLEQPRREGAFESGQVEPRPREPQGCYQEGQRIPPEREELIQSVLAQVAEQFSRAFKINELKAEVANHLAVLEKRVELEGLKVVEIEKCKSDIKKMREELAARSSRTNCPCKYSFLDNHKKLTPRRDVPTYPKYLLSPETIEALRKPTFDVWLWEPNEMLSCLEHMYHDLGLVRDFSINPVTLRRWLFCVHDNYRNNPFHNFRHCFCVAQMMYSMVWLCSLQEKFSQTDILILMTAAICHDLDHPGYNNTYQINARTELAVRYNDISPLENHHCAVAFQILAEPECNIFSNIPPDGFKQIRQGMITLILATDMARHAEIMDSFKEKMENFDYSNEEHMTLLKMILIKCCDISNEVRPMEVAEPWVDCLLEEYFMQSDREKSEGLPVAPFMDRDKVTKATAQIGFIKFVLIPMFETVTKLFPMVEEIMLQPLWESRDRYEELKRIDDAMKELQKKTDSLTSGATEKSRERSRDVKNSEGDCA
Sequence of other members of the PDE family (Homo sapiens, UniProt Q14432) (Q14432 whole entry): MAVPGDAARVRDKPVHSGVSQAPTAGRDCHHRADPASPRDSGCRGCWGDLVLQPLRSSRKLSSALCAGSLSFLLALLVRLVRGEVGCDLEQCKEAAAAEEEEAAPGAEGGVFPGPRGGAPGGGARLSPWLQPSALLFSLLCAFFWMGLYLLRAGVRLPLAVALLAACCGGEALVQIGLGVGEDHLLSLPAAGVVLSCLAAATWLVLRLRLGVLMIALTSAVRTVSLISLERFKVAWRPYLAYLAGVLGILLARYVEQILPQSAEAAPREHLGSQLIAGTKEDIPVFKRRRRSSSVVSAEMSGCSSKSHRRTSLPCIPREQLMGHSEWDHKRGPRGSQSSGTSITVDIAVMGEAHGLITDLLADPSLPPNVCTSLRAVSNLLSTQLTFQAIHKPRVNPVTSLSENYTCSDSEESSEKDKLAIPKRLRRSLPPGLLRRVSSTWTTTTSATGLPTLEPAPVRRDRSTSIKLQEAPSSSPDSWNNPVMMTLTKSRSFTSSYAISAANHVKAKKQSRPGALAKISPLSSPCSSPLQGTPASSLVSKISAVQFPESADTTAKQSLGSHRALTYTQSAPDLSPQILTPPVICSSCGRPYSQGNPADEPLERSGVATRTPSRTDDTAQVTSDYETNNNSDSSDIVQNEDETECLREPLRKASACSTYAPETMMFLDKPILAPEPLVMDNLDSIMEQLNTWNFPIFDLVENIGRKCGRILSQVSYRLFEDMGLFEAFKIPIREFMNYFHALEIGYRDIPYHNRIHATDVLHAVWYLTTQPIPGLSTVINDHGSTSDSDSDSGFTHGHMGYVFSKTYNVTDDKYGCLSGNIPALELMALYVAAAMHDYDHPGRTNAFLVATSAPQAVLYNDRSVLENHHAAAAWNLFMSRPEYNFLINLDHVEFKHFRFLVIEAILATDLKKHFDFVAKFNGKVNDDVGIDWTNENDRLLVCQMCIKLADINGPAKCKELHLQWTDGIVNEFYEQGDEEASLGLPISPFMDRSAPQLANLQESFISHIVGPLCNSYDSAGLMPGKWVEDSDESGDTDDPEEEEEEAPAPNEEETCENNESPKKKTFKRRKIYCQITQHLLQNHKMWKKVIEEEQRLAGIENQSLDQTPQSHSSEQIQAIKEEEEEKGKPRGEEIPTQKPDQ
Sequence of other members of the PDE family (Homo sapiens, UniProt Q9HCR9) (Q9HCR9 whole entry): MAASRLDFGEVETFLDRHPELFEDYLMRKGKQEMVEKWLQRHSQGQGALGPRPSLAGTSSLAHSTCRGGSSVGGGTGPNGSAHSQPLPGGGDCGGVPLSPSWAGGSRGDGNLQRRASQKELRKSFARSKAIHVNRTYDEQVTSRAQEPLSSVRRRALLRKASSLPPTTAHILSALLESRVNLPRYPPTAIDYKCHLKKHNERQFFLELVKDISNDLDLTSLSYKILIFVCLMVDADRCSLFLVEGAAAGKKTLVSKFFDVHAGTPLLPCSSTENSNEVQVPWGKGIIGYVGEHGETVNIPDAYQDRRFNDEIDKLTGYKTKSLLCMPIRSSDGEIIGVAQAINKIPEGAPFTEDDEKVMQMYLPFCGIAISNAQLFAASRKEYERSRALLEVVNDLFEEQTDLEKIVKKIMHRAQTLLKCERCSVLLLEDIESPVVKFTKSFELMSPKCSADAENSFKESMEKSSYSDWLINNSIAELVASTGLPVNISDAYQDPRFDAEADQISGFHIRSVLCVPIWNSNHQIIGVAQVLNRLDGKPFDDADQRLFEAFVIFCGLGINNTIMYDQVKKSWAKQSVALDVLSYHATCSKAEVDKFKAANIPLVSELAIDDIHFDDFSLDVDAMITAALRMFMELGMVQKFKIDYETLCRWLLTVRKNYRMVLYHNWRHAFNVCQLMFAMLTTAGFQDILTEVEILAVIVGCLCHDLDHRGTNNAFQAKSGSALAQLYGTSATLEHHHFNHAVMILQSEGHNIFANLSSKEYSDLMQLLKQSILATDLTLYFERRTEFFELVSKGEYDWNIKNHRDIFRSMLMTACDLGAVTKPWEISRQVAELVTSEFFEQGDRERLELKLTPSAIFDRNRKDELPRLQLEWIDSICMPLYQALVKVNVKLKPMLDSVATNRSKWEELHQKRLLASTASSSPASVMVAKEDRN

IC50 [1, 8]	IC50 [1, 9]	IC50 (PDE4D3)	IC50 (PDE5A3)	IC50 [2]	IC50 [3]	IC50 [4]	IC50 [5]	IC50 [6]	receptor occupancy at 10 mg/kg (PDE10)	ED50 (PDE10)	% occupancy at the highest dose tested (PDE10)	SMILES	ED50 [7]
0.107 µM	0.107 µM	> 10 µM	> 10 µM	> 10 µM	> 10 µM	> 10 µM	> 10 µM	> 10 µM	57%	–	–	Cc1nc2c(N3CCOCC3)ccnn2c1-c1ccc(N2CCOCC2)nc1 [compound 19, 2-methyl-8-(4-morpholinyl)-3-[6-(4-morpholinyl)-3-pyridinyl]-imidazo[1,2-b]pyridazine]	5 mg/kg
0.0562 µM	0.0562 µM	2.75 µM	3.47 µM	5.89 µM	> 50.1 µM	28.2 µM	> 50.1 µM	6.76 µM	–	0.94 mg/kg	–	COCCc1ccc(-c2c(C3CC3)nc3c(N4CCOCC4)ccnn23)cn1 [compound 22, 2-cyclopropyl-3-[6-(2-methoxyethyl)-3-pyridinyl]-8-(4-morpholinyl)-imidazo[1,2-b]pyridazine]	0.5 mg/kg
0.0832 µM	0.0832 µM	13.2 µM	13.8 µM	26.9 µM	> 100 µM	25.7 µM	30.2 µM	30.2 µM	–	1.1 mg/kg	–	CCc1ccc(-c2c(C)nc3c(N4CCOCC4)ccnn23)cn1 [compound 28, 3-(6-ethyl-3-pyridinyl)-2-methyl-8-(4-morpholinyl)-imidazo[1,2-b]pyridazine]	1.2 mg/kg
0.123 µM	0.123 µM	> 10 µM	> 10 µM	> 10 µM	> 10 µM	> 10 µM	> 10 µM	> 10 µM	–	> 10 mg/kg	6%	Cc1nc2c(N3CCOCC3)ccnn2c1-c1ccc(N2CCNCC2)nc1 [compound 30, 2-methyl-8-(4-morpholinyl)-3-[6-(1-piperazinyl)-3-pyridinyl]-imidazo[1,2-b]pyridazine]	7.1 mg/kg
0.038 µM	0.038 µM	> 10 µM	> 10 µM	> 10 µM	> 10 µM	> 10 µM	7.41 µM	> 10 µM	67%	–	–	Cc1nc2c(N3CCOCC3)ccnn2c1-c1cnn(CC(C)C)c1 [compound 35, 2-methyl-3-[1-(2-methylpropyl)-1H-pyrazol-4-yl]-8-(4-morpholinyl)-imidazo[1,2-b]pyridazine]	5 mg/kg
0.0347 µM	0.0347 µM	> 10 µM	8.51 µM	> 10 µM	> 10 µM	> 10 µM	> 10 µM	> 10 µM	59%	–	–	CO[C@@H](C)Cn1cc(-c2c(C)nc3c(N4CCOCC4)ccnn23)cn1 [compound 131, 3-[1-[(2S)-2-methoxypropyl]-1H-pyrazol-4-yl]-2-methyl-8-(4-morpholinyl)-imidazo[1,2-b]pyridazine]	3.1 mg/kg

The remaining lines, values behind:

SMILES	IC50 [1, 8]	IC50 [1, 9]	IC50 (PDE4D3)	IC50 (PDE5A3)	IC50 [2]	IC50 [3]	IC50 [4]	IC50 [5]	IC50 [6]	receptor occupancy at 10 mg/kg (PDE10)	ED50 (PDE10)	% occupancy at the highest dose tested (PDE10)	ED50 [7]
COC(C)(C)Cn1cc(-c2c(C)nc3c(N4CCOCC4)ccnn23)cn1 [compound 37, 3-[1-(2-methoxy-2-methylpropyl)-1H-pyrazol-4-yl]-2-methyl-8-(4-morpholinyl)-imidazo[1,2-b]pyridazine]	0.0501 µM	0.0501 µM	30.9 µM	6.03 µM	53.7 µM	> 100 µM	45.7 µM	11 µM	39.8 µM	67%	2.2 mg/kg	–	1.5 mg/kg
Cc1nc2c(-c3ccncc3)ccnn2c1-c1cnn(CC(C)C)c1 [compound 124, 2-methyl-3-[1-(2-methylpropyl)-1H-pyrazol-4-yl]-8-(4-pyridinyl)-imidazo[1,2-b]pyridazine]	0.0224 µM	0.0224 µM	7.41 µM	1.95 µM	8.71 µM	> 10 µM	5.37 µM	6.92 µM	5.37 µM	–	3 mg/kg	–	1.2 mg/kg
COCCn1cc(-c2c(C)nc3c(N4CCOCC4)cc(C4CC4)nn23)cn1 [compound 125, 6-cyclopropyl-3-[1-(2-methoxyethyl)-1H-pyrazol-4-yl]-2-methyl-8-(4-morpholinyl)-imidazo[1,2-b]pyridazine]	0.0832 µM	0.0832 µM	2.09 µM	1.26 µM	8.51 µM	> 10 µM	> 10 µM	> 10 µM	4.47 µM	–	> 10 mg/kg	42%	≥ 2.5 mg/kg
CCc1nc2c(N3CCOCC3)ccnn2c1-c1cnn(CCOC)c1 [compound 127, 2-ethyl-3-[1-(2-methoxyethyl)-1H-pyrazol-4-yl]-8-(4-morpholinyl)-imidazo[1,2-b]pyridazine]	0.112 µM	0.112 µM	> 10 µM	4.68 µM	> 10 µM	> 10 µM	> 10 µM	> 10 µM	> 10 µM	4%	–	–	2 mg/kg
